Activity calls are given as the source filed them. The calls are words filed in the database; no cut-off is given here.
Experiments:
[1] = molecular target: T1, Cyclin-dependent kinase 2/cyclin E1 (Homo sapiens, UniProt P24941); experiment: Inhibition of CDK2/cyclin E (unknown origin) using peptide substrate in presence of [gamma33P]ATP by image analyser; format: protein-complex assay
K562 = experiment: Antiproliferative activity against human K562 cells assessed as cell viability at 10 uM incubated for 72 hrs by resazurin assay; format: functional; conditions: read-out: Activity
MOLM-13 [2] = experiment: Antiproliferative activity against human MOLM-13 cells assessed as cell viability at 10 uM incubated for 72 hrs by resazurin assay; format: functional; conditions: read-out: Activity
MV4-11 [3] = experiment: Antiproliferative activity against human MV4-11 cells assessed as cell viability at 10 uM incubated for 72 hrs by resazurin assay; format: functional; conditions: read-out: Activity
[4] = molecular target: T1, Cyclin-dependent kinase 2/cyclin E1; experiment: Inhibition of CDK2/cyclin E (unknown origin) expressed in baculovirus infected Sf9 cells using histone H1 as substrate in presence of [gamma33P]ATP by image analyser
[5] = molecular target: Cyclin-dependent kinase 4/cyclin D1 (Homo sapiens) (UniProt P11802+P24385); experiment: Inhibition of CDK4/cyclin D1 (unknown origin) at 20 uM using peptide substrate in presence of [gamma33P]ATP by image analyser relative to control; format: protein-complex assay
[6] = molecular target: Cyclin-dependent kinase 1/cyclin B1 (Homo sapiens, UniProt P06493); experiment: Inhibition of CDK1/cyclin B (unknown origin) using peptide substrate in presence of [gamma33P]ATP by image analyser; format: protein-complex assay
Sequence of Cyclin-dependent kinase 1/cyclin B1 (P06493 whole entry): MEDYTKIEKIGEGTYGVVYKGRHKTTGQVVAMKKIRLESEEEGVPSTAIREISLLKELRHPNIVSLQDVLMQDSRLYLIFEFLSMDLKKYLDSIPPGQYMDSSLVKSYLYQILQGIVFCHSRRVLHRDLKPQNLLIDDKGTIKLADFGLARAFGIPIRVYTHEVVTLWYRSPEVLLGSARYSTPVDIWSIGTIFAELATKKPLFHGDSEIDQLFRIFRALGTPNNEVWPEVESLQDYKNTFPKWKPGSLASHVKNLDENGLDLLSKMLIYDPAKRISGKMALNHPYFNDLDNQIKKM
Sequence of Cyclin-dependent kinase 1/cyclin B1 (P14635 whole entry, further chain): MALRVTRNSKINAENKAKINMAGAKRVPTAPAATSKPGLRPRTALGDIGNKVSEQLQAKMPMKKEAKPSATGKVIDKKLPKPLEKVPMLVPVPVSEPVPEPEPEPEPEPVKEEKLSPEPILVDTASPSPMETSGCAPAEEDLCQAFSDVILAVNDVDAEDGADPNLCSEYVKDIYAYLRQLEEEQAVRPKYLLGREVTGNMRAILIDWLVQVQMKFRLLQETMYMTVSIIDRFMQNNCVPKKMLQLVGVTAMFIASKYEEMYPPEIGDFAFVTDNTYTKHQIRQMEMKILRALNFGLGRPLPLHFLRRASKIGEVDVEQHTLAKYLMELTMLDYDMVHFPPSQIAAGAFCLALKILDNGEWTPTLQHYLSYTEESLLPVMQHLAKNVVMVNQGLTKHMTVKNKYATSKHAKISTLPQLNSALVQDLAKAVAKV

CDK2/Cyclin A2 = CDK2/Cyclin A2 (Homo sapiens, UniProt P24941); experiment: Inhibition of CDK2/cyclin A2 (unknown origin) using peptide substrate in presence of [gamma33P]ATP by image analyser; format: protein-complex assay
[7] = Inhibition of CDK3/cyclin A2 (unknown origin) using peptide substrate in presence of [gamma33P]ATP by image analyser; set-up: species or system Homo sapiens
[8] = molecular target: Cyclin-dependent kinase 4/cyclin D1 (Homo sapiens, UniProt P11802); experiment: Inhibition of CDK4/cyclin D1 (unknown origin) using peptide substrate in presence of [gamma33P]ATP by image analyser; format: protein-complex assay
Sequence of Cyclin-dependent kinase 4/cyclin D1 (P11802 whole entry): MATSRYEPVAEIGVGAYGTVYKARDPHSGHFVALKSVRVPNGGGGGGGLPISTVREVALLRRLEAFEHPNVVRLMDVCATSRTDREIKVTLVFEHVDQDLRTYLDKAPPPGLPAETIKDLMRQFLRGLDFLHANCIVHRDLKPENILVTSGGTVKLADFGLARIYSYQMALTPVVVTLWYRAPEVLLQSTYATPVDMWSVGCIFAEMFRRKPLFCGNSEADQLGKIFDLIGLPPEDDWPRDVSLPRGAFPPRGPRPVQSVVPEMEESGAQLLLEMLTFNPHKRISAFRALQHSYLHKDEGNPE
Sequence of Cyclin-dependent kinase 4/cyclin D1 (P24385 whole entry, further chain): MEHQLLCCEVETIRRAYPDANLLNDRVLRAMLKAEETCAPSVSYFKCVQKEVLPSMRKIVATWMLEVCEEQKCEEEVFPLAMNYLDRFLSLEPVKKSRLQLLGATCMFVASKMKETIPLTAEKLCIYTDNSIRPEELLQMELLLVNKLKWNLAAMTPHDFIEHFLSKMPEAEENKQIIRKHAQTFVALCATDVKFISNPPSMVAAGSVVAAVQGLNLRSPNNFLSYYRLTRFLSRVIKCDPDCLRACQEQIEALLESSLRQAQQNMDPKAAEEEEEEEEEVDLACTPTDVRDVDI

CDK9/cyclin T1 = CDK9/cyclin T1 (Homo sapiens, UniProt P50750); experiment: Inhibition of CDK9/cyclin T1 (unknown origin) using peptide substrate in presence of [gamma33P]ATP by image analyser; format: protein-complex assay
Sequence of CDK9/cyclin T1 (O60563 whole entry): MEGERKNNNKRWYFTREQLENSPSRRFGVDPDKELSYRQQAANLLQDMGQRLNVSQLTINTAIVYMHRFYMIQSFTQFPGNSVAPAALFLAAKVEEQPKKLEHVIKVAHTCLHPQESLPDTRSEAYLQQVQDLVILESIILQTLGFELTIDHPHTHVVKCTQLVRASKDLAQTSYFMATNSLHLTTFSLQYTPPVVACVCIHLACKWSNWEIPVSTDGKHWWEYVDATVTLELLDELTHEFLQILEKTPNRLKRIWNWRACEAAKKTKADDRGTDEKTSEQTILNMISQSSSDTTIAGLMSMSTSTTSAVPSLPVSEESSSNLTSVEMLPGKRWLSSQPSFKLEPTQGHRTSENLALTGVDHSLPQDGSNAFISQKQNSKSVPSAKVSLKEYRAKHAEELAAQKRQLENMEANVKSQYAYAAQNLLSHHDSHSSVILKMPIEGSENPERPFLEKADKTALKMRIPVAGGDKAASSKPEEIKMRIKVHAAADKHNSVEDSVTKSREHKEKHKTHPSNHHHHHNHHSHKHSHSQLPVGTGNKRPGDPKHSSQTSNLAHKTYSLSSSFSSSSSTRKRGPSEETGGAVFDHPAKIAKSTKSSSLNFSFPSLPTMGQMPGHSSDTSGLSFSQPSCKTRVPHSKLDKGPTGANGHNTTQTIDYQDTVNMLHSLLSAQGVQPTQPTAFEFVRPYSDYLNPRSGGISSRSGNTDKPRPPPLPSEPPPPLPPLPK
Sequence of CDK9/cyclin T1 (P50750 whole entry): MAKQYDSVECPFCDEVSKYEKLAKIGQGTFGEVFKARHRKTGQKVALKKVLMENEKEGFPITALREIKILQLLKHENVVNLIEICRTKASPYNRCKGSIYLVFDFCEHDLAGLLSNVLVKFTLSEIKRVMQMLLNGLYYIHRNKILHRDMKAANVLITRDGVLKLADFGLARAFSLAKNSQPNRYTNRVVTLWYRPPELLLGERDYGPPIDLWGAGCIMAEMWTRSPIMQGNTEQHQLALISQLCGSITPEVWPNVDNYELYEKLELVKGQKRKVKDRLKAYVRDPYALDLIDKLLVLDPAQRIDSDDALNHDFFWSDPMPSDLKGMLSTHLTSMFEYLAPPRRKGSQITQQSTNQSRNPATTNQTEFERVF

[9] = molecular target: T2, Cyclin-dependent kinase 2 (Homo sapiens, UniProt P24941); experiment: Binding affinity to CDK2 (unknown origin) by isothermal titration calorimetry
[10] = molecular target: T2, Cyclin-dependent kinase 2; experiment: Binding affinity to CDK2 (unknown origin) assessed as change in enthalpy by isothermal titration calorimetry
[11] = molecular target: T2, Cyclin-dependent kinase 2; experiment: Binding affinity to CDK2 (unknown origin) assessed as change in entropy by isothermal titration calorimetry
MOLM-13 [12] = experiment: Antiproliferative activity against human MOLM-13 cells assessed as growth inhibition after 72 hrs by resazurin assay; format: functional
MV4-11 [13] = experiment: Antiproliferative activity against human MV4-11 cells assessed as growth inhibition after 72 hrs by resazurin assay; format: functional
MV4-11 [14] = experiment: Induction of cell cycle arrest in human MV4-11 cells assessed as accumulation at G1 phase after 24 to 72 hrs by propidium iodide staining based flow cytometry analysis; format: functional; conditions: dose 6-100 µM, time 24-72 hrs
MV4-11 [15] = experiment: Induction of cell cycle arrest in human MV4-11 cells assessed as accumulation at sub-G1 phase at high dose after 72 hrs by propidium iodide staining based flow cytometry analysis; format: functional
MV4-11 [16] = experiment: Induction of cell cycle arrest in human MV4-11 cells assessed as reduction in S phase cells at high dose after 24 to 72 hrs by propidium iodide staining based flow cytometry analysis; format: functional; conditions: time 24-72 hrs
[17] = molecular target: T2, Cyclin-dependent kinase 2
Description: Binding affinity to CDK2 (unknown origin) assessed as gibbs free energy change by isothermal titration calorimetry

Row | Structure (SMILES) | IC50 [1] [µM] | viability at 10 µM (K562) [%] | viability at 10 µM (MOLM-13 [2]) [%] | viability at 10 µM (MV4-11 [3]) [%] | also measured
1 | O=c1[nH]cc(-c2ccc(-c3c[nH]c(=O)n4ccnc34)cc2)c2nccn12 | > 12.5 | 111 | 87.5 | 91.4 | –
2 | O=c1n(CCO)cc(C2CCCCC2)c2nccn12 | 1.5 | 103 | 91.9 | 88.4 | –
3 | O=c1[nH]cc(-c2ccccc2)c2nccn12 | – | 108 | 87.4 | 89.2 | IC50 [4]: 6.6 µM
4 | O=c1[nH]cc(-c2ccccc2)c2ncc(I)n12 | > 25 | 109 | 77.4 | 72.6 | –
5 | O=c1[nH]cc(/C=C/c2ccccc2)c2nccn12 | 17.8 | 107 | 55.6 | 42.3 | –
6 | O=c1n(CCCO)cc(C2CCCCC2)c2nccn12 | 3 | 104 | 94.1 | 91.7 | –
7 | O=c1[nH]cc(-c2ccccc2)c2nc(Br)cn12 | 24.4 | 105 | 83.9 | 77.2 | –
8 | O=c1[nH]cc(C2CCCCC2)c2nccn12 | 0.66 | 103 | 84.8 | 82.2 | inhibition [5]: 46%; IC50 [6]: 4.3 µM; IC50 (CDK2/Cyclin A2): 0.68 µM; IC50 [7]: 2.72 µM; IC50 [8]: 14.3 µM; IC50 (CDK9/cyclin T1): 10 µM; Kd [9]: 4.1 µM; deltaH [10]: -11.4 kcal/mol; -TdeltaS [11]: 3.92 kcal/mol; GI50 (MOLM-13 [12]): 50 µM; GI50 (MV4-11 [13]): 50 µM; Activity (MV4-11 [14]): Dose-dependent effect; Activity (MV4-11 [15]): Active; Activity (MV4-11 [16]): Active; deltaG [17]: -7.48 kcal/mol
9 | O=c1[nH]cc(C2=CCCC2)c2nccn12 | 4.9 | 106 | 93.4 | 88.2 | –
10 | Cn1cc(C2CCCCC2)c2nccn2c1=O | 4.7 | 105 | 88.3 | 89.3 | –
11 | O=c1[nH]cc(-c2ccccc2)c2ncc(Br)n12 | > 50 | 109 | 82.7 | 78.6 | –
12 | O=c1[nH]cc(-c2ccccc2)c2nc(I)cn12 | > 25 | 110 | 63.3 | 62.6 | –
13 | O=C1c2ccccc2C(=O)N1Cn1cc(C2CCCCC2)c2nccn2c1=O | > 50 | 107 | 91.3 | 87.4 | –
14 | O=c1[nH]cc(C2CCCCC2)c2ncc(I)n12 | 14.2 | 100 | 70.7 | 78.5 | –
15 | O=c1[nH]cc(-c2ccsc2)c2nccn12 | 8.9 | 105 | 87.8 | 84.9 | –
16 | O=c1[nH]cc(C2CCCCC2)c2nc(I)cn12 | 6.5 | 101 | 33.8 | 40.1 | –
17 | O=c1[nH]cc(-c2ccc(O)cc2Cl)c2nccn12 | 1.5 | 105 | 86.2 | 85 | –
18 | NS(=O)(=O)c1ccc(Nc2nc(-c3cccc(-c4ccccc4)c3)c3nc[nH]c3n2)cc1 | 0.031 | 94.5 | 98.3 | 62.8 | IC50 [6]: 4.3 µM; IC50 (CDK2/Cyclin A2): 0.022 µM; IC50 [7]: 2.87 µM; IC50 [8]: > 20 µM; IC50 (CDK9/cyclin T1): 9.4 µM
19 | O=c1[nH]cc(C2CCCC2)c2nccn12 | 4 | 105 | 90.5 | 90.2 | –
20 | O=C(O)Cn1cc(C2CCCCC2)c2nccn2c1=O | > 50 | 108 | 90.3 | 94.7 | –
21 | O=c1[nH]cc(-c2ccccc2)c2nc(-c3ccccc3)cn12 | > 50 | 105 | 83.5 | 84.1 | –
22 | COc1ccc(-c2cn3c(=O)[nH]cc(F)c3n2)cc1 | > 25 | 109 | 51.8 | 42.9 | –
23 | O=c1[nH]cc(C2CCCCC2)c2nc(I)c(I)n12 | 4.6 | 99.5 | 53.9 | 57 | –
24 | NS(=O)(=O)c1ccc(Nc2nc(OCC3CCCCC3)c3nc[nH]c3n2)cc1 | – | 103 | 66 | 32.1 | –
25 | COc1ccc(-c2cn3c(=O)[nH]cc(-c4ccc(OC)cc4)c3n2)cc1 | > 25 | 36.2 | 15.3 | 52 | –
26 | CCOC(=O)Cn1cc(C2CCCCC2)c2nccn2c1=O | > 50 | 110 | 90.3 | 93.3 | –
27 | O=c1[nH]cc(-c2cccc(O)c2)c2nccn12 | 4.8 | 104 | 85.6 | 82 | –
28 | CC(=O)OCCCn1cc(C2CCCCC2)c2nccn2c1=O | 7.7 | 101 | 93.8 | 88.5 | –
29 | O=c1[nH]cc(-c2ccccc2)c2nc(I)c(I)n12 | > 12.5 | 113 | 56.7 | 63.1 | –
30 | O=c1[nH]cc(C2=CCCCC2)c2nccn12 | 1.2 | 101 | 88.7 | 80.6 | –

Source: ChEMBL document CHEMBL4732259, “Imidazo[1,2-c]pyrimidin-5(6H)-one inhibitors of CDK2: Synthesis, kinase inhibition and co-crystal structure” (Eur J Med Chem, 2021)
